What all share (format): in vivo
For experiment [1], the system named is Echinochloa crus galli. Kind of experiment: Pre-emergence herbicidal action against harmful plants. The settings on record: Echinochloa, 504 h, dosage 320 g/ha, visual assessment after 3 weeks (Table A), read-out: Herbicidal action against ECHCG. The method, boiled down:
(§1)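 Seeds sown in sandy loam, soil surface sprayed with WP or EC formulations in water at 600 to 800 l/ha with 0.2% wetting agent. Kept in greenhouse; damage scored visually after 3 weeks versus untreated controls (100% = plants dead, 0% = like control).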

The test system of experiment [2] is Veronica persica. Described as above. The settings on record: 504 h, dosage 320 g/ha, visual assessment after 3 weeks (Table A), read-out: Herbicidal action against VERPE. The gist of the method:
as §1

For experiment [3], the system named is Avena fatua. The description is as above. The settings on record: dosage 320 g/ha, visual assessment after 3 weeks (Table A). The gist of the method: as §1
The next experiment relates to Abutilon theophrasti. The description is as above. The settings on record: Abutilon theophrasti, 504 h, dosage 320 g/ha, visual assessment after 3 weeks (Table A), read-out: Herbicidal action against ABUTH. The method, boiled down:
as §1

A further experiment relates to Alopecurus myosuroides. Described as above. The settings on record: dosage 320 g/ha, visual assessment after 3 weeks (Table A). The method, boiled down: as §1
The test system of experiment [4] is Amaranthus retroflexus. Described as above. The settings on record: 504 h, dosage 320 g/ha, visual assessment after 3 weeks (Table A), read-out: Herbicidal action against AMARE. The method, boiled down: as §1
Experiment [5] concerns Matricaria inodora. Described as above. The settings on record: Tripleurospermum inodorum, 504 h, dosage 320 g/ha, visual assessment after 3 weeks (Table A), read-out: Herbicidal action against MATIN. The gist of the method:
as §1

The subject of experiment [6] is Stellaria media. The description is as above. The settings on record: 504 h, dosage 320 g/ha, visual assessment after 3 weeks (Table A), read-out: Herbicidal action against STEME. The gist of the method:
as §1

For experiment [7], the system named is Phartoitis purpureum. Described as above. The settings on record: dosage 320 g/ha, visual assessment after 3 weeks (Table A). The gist of the method:
as §1

Another experiment deals with Fallopia convolvulus. Kind of experiment: Post-emergence herbicidal action against harmful plants. The settings on record: 504 h, dosage 80 g/ha, visual rating after about 3 weeks (Table D), read-out: Herbicidal action against POLCO. The method, boiled down:
(§2)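 Greenhouse plants in sandy loam, treated at the one-leaf stage 2 to 3 weeks after sowing, with WP or EC formulations sprayed at 600 to 800 l/ha water plus 0.2% wetting agent. Activity rated visually after about 3 weeks against untreated controls, as % (100% = plants died, 0% = control).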

In experiment [8] the test system is Echinochloa crus galli. The experiment is described as above. The settings on record: 504 h, dosage 80 g/ha, visual rating after about 3 weeks (Table D), read-out: Herbicidal action against ECHCG. The gist of the method:
as §2

The subject of experiment [9] is Veronica persica. The experiment is described as above. The settings on record: 504 h, dosage 80 g/ha, visual rating after about 3 weeks (Table D), read-out: Herbicidal action against VERPE. The gist of the method:
as §2

Experiment [10] deals with Avena fatua. Described as above. The settings on record: dosage 80 g/ha, visual rating after about 3 weeks (Table D). The method, boiled down:
as §2

Experiment [11] concerns Amaranthus retroflexus. Described as above. The settings on record: 504 h, dosage 80 g/ha, visual rating after about 3 weeks (Table D), read-out: Herbicidal action against AMARE. The gist of the method:
as §2

Experiment [12] relates to Matricaria inodora. The experiment is described as above. The settings on record: Tripleurospermum inodorum, 504 h, dosage 80 g/ha, visual rating after about 3 weeks (Table D), read-out: Herbicidal action against MATIN. The method, boiled down:
as §2

Experiment [13] concerns Stellaria media. Described as above. The settings on record: 504 h, dosage 80 g/ha, visual rating after about 3 weeks (Table D), read-out: Herbicidal action against STEME. The gist of the method:
as §2

Experiment [14] relates to Phartoitis purpureum. The experiment is described as above. The settings on record: 504 h, dosage 80 g/ha, visual rating after about 3 weeks (Table D), read-out: Herbicidal action against PHBPU. The gist of the method:
as §2

As to `CN(C)C(=O)COc1c(Cl)ccc(C(=O)C2=C(O)CCCC2=O)c1C(F)(F)F` [Compound E1], the pest or weed control at 320 g/ha in the experiment with Echinochloa crus galli [1] came out at 100%; in the experiment with Veronica persica [2], 100%; with Abutilon theophrasti it was 100%; in the experiment on Amaranthus retroflexus [4], 100%; in the experiment with Matricaria inodora [5], 100%; in the experiment on Stellaria media [6], 90%. Also, the “Herbicidal action against AVEFA” value in the experiment with Avena fatua [3] is 90%; with Avena fatua [10] it was 80%. The “Herbicidal action against ALOMY” value in the experiment on Alopecurus myosuroides is 100%. The “Herbicidal action against PHBPU” value in the experiment with Phartoitis purpureum [7] was determined as 80%. In addition, the pest or weed control at 80 g/ha in the experiment with Fallopia convolvulus worked out at 100%; in the experiment with Echinochloa crus galli [8] it was 90%; in the experiment on Veronica persica [9], 90%; in the experiment on Amaranthus retroflexus [11] it was 80%; in the experiment on Matricaria inodora [12] it was 100%; in the experiment with Stellaria media [13], 90%. Moreover, the pest or weed control at 80 g/ha in the experiment on Phartoitis purpureum [14] came to 90%.
Take `CN(C)C(=O)COc1c(Cl)ccc(C(=O)C2=C(O)CCCC2=O)c1Cl` [Compound S1, reference compound]: the pest or weed control at 320 g/ha in the experiment on Echinochloa crus galli [1] was found to be 30%; in the experiment with Veronica persica [2] it was 70%; in the experiment with Abutilon theophrasti, 90%; in the experiment with Amaranthus retroflexus [4] it was 60%; in the experiment with Matricaria inodora [5], 100%; in the experiment with Stellaria media [6], 80%. In addition, the “Herbicidal action against AVEFA” value in the experiment on Avena fatua [3] is on record as 20%; in the experiment with Avena fatua [10], 50%. For the same compound, the “Herbicidal action against ALOMY” value in the experiment with Alopecurus myosuroides worked out at 40%. The “Herbicidal action against PHBPU” value in the experiment with Phartoitis purpureum [7] worked out at 40%. Besides, the pest or weed control at 80 g/ha in the experiment with Fallopia convolvulus worked out at 60%; with Echinochloa crus galli [8], 50%; in the experiment with Veronica persica [9], 70%; with Amaranthus retroflexus [11], 80%; with Matricaria inodora [12], 100%; in the experiment with Stellaria media [13], 70%. Also, the pest or weed control at 80 g/ha in the experiment on Phartoitis purpureum [14] was 70%.

(Values after US8557741B2, “3-aminocarbonyl-substituted benzoylcyclohexanediones and their use as herbicides” (Bayer CropScience AG, priority 2010, dated 2013).)
